Tested on: DSS-induced colitis in C57BL/6 mice
Assay: Dextran sulfate sodium (DSS) induced colitis mouse model
Format: in vivo
Conditions: 2.5% DSS 7 days, 200 mg/kg orally in food once daily, vs DSS controls
Description: FIGS. 8-11: Ulcerative Colitis mouse model following treatment with representative compound of Formula (I) (UTA77); FIG. 8: Body weight loss; FIG. 9: Stool consistency; FIG. 10: Bloody stools; FIG. 11: Disease activity index. […] UTA77 was formulated with food powder (200 mg/kg of body weight) which was orally administered once daily over a period of 7 days.
Body weight (refer to FIG. 8), stool consistency (refer to FIG. 9), blood content of stools (refer to FIG. 10), and general disease activity index (refer to FIG. 11) were all assessed following treatment with representative compound of Formula (I), UTA77.
Female C57BL/6 mice were used at 7-8 weeks of age having an average body weight≈17 g. Mice were divided randomly into three different groups: • 1. a healthy control group without DSS, • 2. a control group with DSS, • 3. a group treated with DSS and test compound (n=5 per group).
Body weight of mice were assessed daily over an initial acclimation period of one week (FIG. 8). All mice were non-fasting and had access to food and drinking water (autoclaved tap water) ad libitum. Representative compounds of Formula (I) were formulated with food powder (200 mg/kg of body weight) to produce individual portions that were placed into the cage once a day. Representative compounds of Formula (I) (20 mg/ml) were stirred overnight at 4° C. in 500 ml 0.5% carboxymethylcellulose (CMC) solution. To 37.5 ml of the CMC solution, 41.25 g sucrose, 371.25 g food powder and 0.5% CMC solution were mixed to prepare a food mash, which was aliquoted (2.2 g portions) in weighting trays and individually stored at −20° C. Colitis was induced by supplementing 2.5% w/v of dextran sulphate sodium (DSS, MW=36,000-50,000, colitis grade, MP Biomedicals, USA) in the drinking water of mice from day 0 to day 7 (day of termination). On day 0, all mice were weighed and checked for stool consistency and occult blood before they were exposed to DSS and test compounds. Control animals were only supplied with autoclaved drinking water without DSS, and normal chow pellets, while 2.5% DSS in tap water was provided to the DSS-treated groups from day 0 to day 7. All controls groups were also supplied with 2.2 g of food mash without test compounds. The animals of the drug-treated groups received 200 mg/kg of test compounds in food mash with 2.5% of DSS in water from day 0 to day 7. Body weight (refer to FIG. 8), stool consistency (refer to FIG. 9), blood content of stools (refer to FIG. 10) were recorded daily. The Disease Activity Index (DAI) (FIG. 11) was calculated according to scoring Table 9 below. Each parameter was scored independently and all three parameters were added to calculate the DAI.

COc1ccc(CCNC(=O)CCCC2=C(C)C(=O)c3ccccc3C2=O)cc1OC [UTA #77, N-(3,4-dimethoxyphenethyl)-4-(3-methyl-1,4-naphthoquinone-2-yl)butanamide]
Bloody stools (in words): reduction in bloody stools | Body weight loss (in words): less weight loss than DSS controls | Disease activity index (in words): reduced disease activity | Stool consistency (in words): improved stools

Reference: patent US10934253B2, “Therapeutic compounds and methods” (UNIVERSITY OF TASMANIA, priority 2017, dated 2021)
